Test results published in article PMC8841457 (Clinical and Translational Science, 2021).

What was measured:
[1] = tested on: healthy recreational polydrug users; assay: Drug Similarity VAS at 8 h postdose; type: in vivo, human; settings: pentazocine 0.5 mg/kg i.v.
[2] = tested on: healthy recreational polydrug users; assay: Pupillometry; type: in vivo, human; settings: pentazocine 0.5 mg/kg i.v.; 8-h postdose period
[3] = tested on: healthy recreational polydrug users; assay: Global retrospective assessments at 8 h postdose; settings: pentazocine 0.5 mg/kg i.v.
[4] = tested on: healthy recreational polydrug users; assay: Drug effect questionnaire; settings: pentazocine 0.5 mg/kg and difelikefalin 5 and 15 mcg/kg i.v.; unipolar 0-100 VAS
[5] = tested on: healthy recreational polydrug users; assay: Treatment-emergent adverse events; type: in vivo, human; settings: pentazocine 0.5 mg/kg single i.v., n = 40; safety population
[6] = tested on: healthy recreational polydrug users; assay: Drug Liking VAS, human abuse potential study; type: in vivo; settings: for Drug Liking VAS Emax LS mean difference: mixed-effect model
[7] = Plasma pharmacokinetics after single i.v. dose; settings: pentazocine 0.5 mg/kg single i.v., n = 40

CC(C)=CCN1CCC2(C)c3cc(O)ccc3CC1C2C (centres unmarked) [Pentazocine, pentazocine]
Drug Similarity VAS, median, cannabinoids, hallucinogens, or stimulants ([1]; unipolar 0-100): ≤ 2.0 | Drug Similarity VAS, median, benzodiazepines ([1]; unipolar 0-100, n=8): 22.5 | Drug Similarity VAS, median, opioids ([1]; unipolar 0-100, n=38): 65.0 | mean Emax reduction in pupil diameter from baseline (predose) [2]: 2.5 mm | PVAQ median value ([3]; 8 h postdose): 10.00 $ | PVAQ mean value ([3]; 8 h postdose, $0-$100 scale): 9.60 $ | Mean 8-h score, Overall Drug Liking VAS ([3]; bipolar VAS, 50 neutral): greater than or equal to 69 points | Mean 8-h score, Take Drug Again VAS ([3]; bipolar VAS, 50 neutral): greater than or equal to 69 points | Bad Effects VAS Emax, scores overall [4]: < 20 points | Any TEAE, subjects [5]: 13 (32.5) n (%) | Any serious TEAE, subjects [5]: 0 n (%) | Any severe TEAE, subjects [5]: 0 n (%) | Discontinuation due to TEAE, subjects [5]: 1 (2.5) n (%) | TEAE Abdominal pain upper, subjects [5]: 0 n (%) | TEAE Abdominal pain, subjects [5]: 0 n (%) | TEAE Chills, subjects [5]: 2 (5.0) n (%) | TEAE Constipation, subjects [5]: 1 (2.5) n (%) | TEAE Dizziness, subjects [5]: 2 (5.0) n (%) | TEAE Dyspepsia, subjects [5]: 0 n (%) | TEAE Groin pain, subjects [5]: 0 n (%) | TEAE Headache, subjects [5]: 4 (10.0) n (%) | TEAE Hot flush, subjects [5]: 3 (7.5) n (%) | TEAE Hypoesthesia, subjects [5]: 1 (2.5) n (%) | TEAE Nausea, subjects [5]: 5 (12.5) n (%) | TEAE Vomiting, subjects [5]: 5 (12.5) n (%) | Drug Liking VAS Emax LS mean difference ([6]; pentazocine 0.5 mg/kg i.v. vs difelikefalin 5 mcg/kg i.v., completer set N = 39): 21.95 | Drug Liking VAS Emax LS mean difference ([6]; pentazocine 0.5 mg/kg i.v. vs difelikefalin 15 mcg/kg i.v., completer set N = 39): 20.92 | Drug Liking VAS Emax LS mean difference ([6]; pentazocine 0.5 mg/kg i.v. vs placebo, completer set N = 39): 35.50 | Mean Drug Liking VAS scores ([6]; pentazocine 0.5 mg/kg i.v., over the first 3 h): > 60 points | Drug Liking VAS Emax, median (min, max) ([6]; pentazocine 0.5 mg/kg single i.v., completer set N = 39): 91.0 (49, 100) | Cmax ([7]; human plasma, tandem MS, mean (SD)): 296.0 (197.7) ng/ml | AUC0-t ([7]; mean (SD)): 487.4 (133.5) h*ng/ml | V d ([7]; mean (SD)): 4280 (1079.8) ml/kg | t 1/2 ([7]; mean (SD)): 3.7 (1.2) h | Tmax ([7]; median [range]): 0.1 [0.1, 0.8] h
